Results published in patent publication US10245328B2, “Gadolinium complex comprising DO3A-tranexamic acid conjugate” (KYUNGPOOK NATIONAL UNIVERSITY INDUSTRY-ACADEMIC COOPERATION …, priority 2014, dated 2019).
Entries after “also recorded” stand apart in the source; their conditions may differ.

Legend:
[1] = Stability against hydrolysis in H2O (HPLC, 197 nm); format: physicochemical; details: for HPLC peak 2.31 min, 2b / HPLC peak 27.11 min, 2a (trans) / HPLC peak 30.48 min, 2a (cis) / HPLC peak 52.24 min: 2a in water
Procedure: The contrast agents of the present series 100 mg are dissolved in distilled water 10 mL and is maintained as they are for 72 hours at 50° C. Using HPLC, O.D. (Optical Density) values are read at 197 nm and the stability of the agents is determined. The substances at each retention time are examined using LC Mass Spectroscopy for accurate identification of decomposed products.

[2] = Kinetic stability in various pH ranges (evolution of R1 in PBS); format: physicochemical; details: pH 1, [Gd]=1.0 mM in PBS, room temperature
Procedure: The kinetic stability is expressed as evolution of a water proton relaxation rate (R1) for 2 ([Gd]=1.0 mM) in PBS under various pH conditions (pH: 1, 3, 5, 7, 9 and 11) at a room temperature, as a function of the incubation time. The measurement is executed on a 1.5 T whole body system (GE Healthcare, Milwaukee, Wis., USA).

[3] = Relaxation rate measurement (R1, R2) in PBS and in PBS solution of HSA; format: physicochemical; details: 293K
Procedure: T1 measurement is carried out using an inversion recovery method at 1.5 T (64 MHz) in a variable inverse time (TI). MR images are obtained for 35 different TI values in a range of 50 to 1750 ms. A T1 relaxation time is obtained from a nonlinear least-squares fit of a signal strength measured at each TI value. For a T2 CPMG (Carr-Purcell-Meiboon-Gill) pulse sequence measurement, the measurement is adapted to a multi spin-echo measurement. 34 images are obtained at 34 different echo time (TE) values in a range of 10 to 1900 ms. The T2 relaxation time is obtained from a nonlinear least-squares fit of mean pixel values for multi spin-echo measurement at each echo time. Next, a relaxation rate (R1 and R2) is calculated as an inverse of a relaxation time per mM. The determined relaxation time (T1 and T2) and relaxation rate (R1 and R2) are subjected to an image processing to get a relaxation time map and relaxation rate respectively.
For comparison between the complexes 2a-e, there is no noticeable difference in R1's. The measurement is carried out for two different media, that is, PBS (pH=7.4) and PBS solution of HAS in order to indicate which blood-pool effect is expressed by the complexes 2a-e.

ICR mice = assay: In vivo MR experiment, T1-weighted images after tail vein injection; details: 0.1 mmol Gd/kg i.v.
Procedure: The in vivo experiment is executed with compliance to a regulation of Animal Research Committee of KNU. 29-31 g weight 6-weeks male ICR mice are used. […] The measurement is carried out before and after the injection of the complexes 2a-e through the tail vein. […] After the mice wake from the anesthesia after each measurement, the mice were placed in a cage capable of free access to feed and food. For this measurement, the animals are held at about 37° C. using a warm water blanket. MR images are taken using a 1.5 T MR unit (GE Healthcare, Milwaukee, Wis.) with a manual RF coil for a small animal. The coil may be of a receiver type having a 50 mm inner diameter. […] MR images are collected for 24 h after the injection. Anatomical positions having an improved contrast are set for a liver, a bile duct, and a kidney on (post contrast) MR images. For quantitative measurements, a signal intensity in a region of interest (ROI) is measured using Advantage Window software (GE medical, U.S.). The CNR is calculated using a following equation (1): […] SNR is a […].

[4] = Transmetalation kinetics with ZnCl2, evolution of R1P(t)/R1P(0); format: physicochemical; details: 72 h; phosphate buffer pH 7.4, 2.5 mmol/L Gd complex + 2.5 mmol/L ZnCl2, room temperature, 3T
Procedure: This experiment is prepared using a previous document method (Laurent, S. Elst, L. V.; Copoix, F.; Muller, R. N. Investigative radiology 2001, 36, 115). This is based on measurements of evolution of a water proton longitudinal relaxation rate (R1P) of a buffer solution (phosphate buffer, pH 7.4) containing 2.5 mmol/L gadolinium complex and 2.5 mmol/L ZnCl2. Next, 10 μL ZnCl2 250 mmol/L solution is added to a […] paramagnetic complex buffer solution. The mixture is strongly agitated, and then, 300 μL thereof is taken for a relaxation measurement (relaxometric measurement). […] A R1P relaxation rate is acquired by excluding a diamagnetic contribution of a water proton relaxation from the measured relaxation rate R1=(1/T1). The measurement is performed at a room temperature on a 3T whole body system (Magnetom Tim Trio, Simens, Korea Institute of Radiological & Medical Science).
An evaluation of a normal paramagnetic longitudinal relaxation rate R1P (t)/R1P (0) is observed between the present series 2a-e and comparison examples Dotarem®, Primovist®, Multihance®, and Omniscan® (FIG. 4). The used complex in the test is divided into two following groups based on an evolution pattern: (i) a group employing a macrocyclic chelate (ii) a group employing an acyclic chelate. […]

[5] = PBS solution of 0.67 mM HSA, 64 MHz

portion of the initial paramagnetic relaxation rate kept, R1P(t)/R1P(0) [4] [%]	SMILES	hydrolytic stability (in words) ([1]; 100 mg in distilled water 10 mL, 72 hours at 50° C.)	HPLC peak 2.31 min, 2b ([1]; 50° C./3 day) [%]	HPLC peak 27.11 min, 2a (trans) ([1]; 50° C./3 day) [%]	HPLC peak 30.48 min, 2a (cis) ([1]; 50° C./3 day) [%]	HPLC peak 52.24 min ([1]; 50° C./3 day) [%]	HPLC peak 2.31 min, 2b ([1]; initial) [%]	HPLC peak 27.11 min, 2a (trans) ([1]; initial) [%]	HPLC peak 30.48 min, 2a (cis) ([1]; initial) [%]	HPLC peak 52.24 min ([1]; initial) [%]	kinetic stability (evolution of R1) [2]	R1 ([3]; PBS pH 7.4, 64 MHz (1.5 T)) [mM⁻¹ s⁻¹]	R2 ([3]; PBS pH 7.4, 64 MHz (1.5 T)) [mM⁻¹ s⁻¹]	R1 in 0.67 mM HSA [3, 5] [mM⁻¹ s⁻¹]	R2 in 0.67 mM HSA [3, 5] [mM⁻¹ s⁻¹]	signal enhancement / signal strength at the liver (ICR mice; ICR mice, 1.5 T, initial 1 hour)	liver-specificity / class of contrast agent (ICR mice; in vivo MR images of mice)
–	CCOC(=O)C1CCC(CNC(=O)CN2CCN(CC(=O)[O-])CCN(CC(=O)[O-])CCN(CC(=O)[O-])CC2)CC1.[Gd+3] (stereo not drawn) [2a]	hydrolytic stability falls	0.72	97.43	1.25	0.19	0.01	97.73	1.89	0.04	sufficient kinetic stability	4.84 ± 0.18	4.91 ± 0.25	5.11 ± 0.10	6.04 ± 0.13	insufficient to be qualified as the liver-specific contrast agent	exhibits the liver-specificity; also recorded: true liver-specific contrast agent
50	CNC[C@H](O)[C@@H](O)[C@H](O)[C@H](O)CO.CNC[C@H](O)[C@@H](O)[C@H](O)[C@H](O)CO.O=C([O-])CN(CCN(CC(=O)[O-])CC(=O)O)CCN(CC(=O)O)C(COCc1ccccc1)C(=O)[O-].[Gd+3] (stereo not drawn) [Multihance, Gd-BOPTA]	–	–	–	–	–	–	–	–	–	–	–	–	–	–	–	–
50	CCOc1ccc(CC(CN(CCN(CC(=O)[O-])CC(=O)[O-])CC(=O)[O-])N(CC(=O)[O-])CC(=O)[O-])cc1.[Gd+3].[Na+].[Na+] (stereo not drawn) [Primovist, Gd-EOB-DTPA]	–	–	–	–	–	–	–	–	–	–	–	–	–	–	–	–
